Measured values reported in patent US5087631A, “Oxathi(SIV)azol-5-one compounds” (Glaxo Inc., priority 1990, dated 1992).

Test system: thoracic aortas
Assay: Aorta Vasodilation Assay (relaxation of phenylephrine-contracted, endothelium-removed rat thoracic aorta rings)
Design: species or system male Sprague-Dawley rats
Settings: 20% O2, without methylene blue, endothelium-removed rings contracted with phenylephrine (1×10^-7 M), SOD 100 U/mL, cumulative addition, read-out: IC50 (relaxation induced by test compound, vasodilation assay)
Description: The thoracic aortas removed from euthanized male Sprague-Dawley rats (200-300 g) are cleaned of adherent connective tissue and cut into rings 3 to 5 mm in length. Endothelium is removed by rolling the rings on moist filter paper. […] Tissues are mounted to isometric force displacement transducers and responses are recorded on a polygraph.
All rings are gradually stretched (over a 120 min. period) to a basal resting tension of 2 g, which is maintained throughout the assay. During the basal tension adjustment period, the rings are exposed to KCl (40 mM) two to three times to verify tissue contractility. During this period, the effectiveness of endothelium removal is confirmed by the absence of the characteristic relaxation seen with acetylcholine (1×10^-6 M) in endothelium-intact (but not endothelium-removed) rings contracted with phenylephrine (1×10^-7 M).
Phenylephrine (1×10^-7 M) is then added and the rings are allowed to obtain a stable contractile response after which time, SOD (100 U/mL) is added to the tissues. The test compound is then added in a cumulative fashion. After the stabilization of the response to the last concentration of the test compound, sodium nitroprusside (1×10^-4 M) is added to induce complete relaxation.

Row | Structure (SMILES) | IC50 [µM]
1 | COc1ccc(-c2[s+]noc2[O-])cc1 [4-methoxyphenyl, 4-(4-methoxyphenyl)-5H-1,3,2-oxathi(SIV)azol-5-one] | 1.3
2 | O=[N+]([O-])c1ccc(-c2[s+]noc2[O-])cc1 [4-nitrophenyl, 4-(4-nitrophenyl)-5H-1,3,2-oxathi(SIV)azol-5-one] | 16
3 | Cc1[s+]noc1[O-] [methyl, 4-Methyl-5H-1,3,2-oxathi(SIV)azol-5-one] | 20
4 | [O-]c1on[s+]c1-c1ccccc1 [phenyl, 4-phenyl-5H-1,3,2-oxathi(SIV)azol-5-one] | 2.3
